Biological target: human DGKζ (Homo sapiens (Human), UniProt Q13574)
Test: Human DGKζ kinase activity inhibition assay (ADP-Glo)
Format: biochemical
Details: in vitro human DGKζ kinase activity inhibition assay; read-out: IC50
Procedure: Human DGKζ Kinase Activity Inhibition Assay. Human diacylglycerol kinase zeta (DGKζ) inhibitory activity of compounds of the present invention was quantified employing the human DGKζ kinase activity assay as described in the following paragraphs. In essence, the enzyme activity was measured by quantification of the adenosine-di-phosphate (ADP) generated as a co-product of the enzyme reaction via the “ADP-Glo™ Kinase Assay” kit from the company Promega. This detection system works as follows: In a first step the adenosine-tri-phosphate (ATP) not consumed in the kinase reaction is quantitatively converted to cyclic adenosine-mono-phosphate (cAMP) employing an adenylate cyclase (“ADP-Glo-reagent”), then the adenylate cyclase is stopped and the ADP generated in the kinase reaction is converted to ATP, which subsequently generates in a luciferase-based reaction a glow-luminescence signal (“Kinase Detection Reagent”). C-terminally FLAG-tagged, recombinant full-length human DGKζ (in house expressed in baculovirus infected insect cells, purified using anti-Flag pulldown and size exclusion chromatography) was used as enzyme. As an alternative, commercially available enzyme by Carnabio can be used. […] Subsequently, 22.55 volumes of a 510 mM solution of octyl-β-D-glucopyranoside (Sigma-Aldrich, Cat. #O8001-10G) in 50 mM MOPS buffer (pH 7.4) were added, and the mixture was sonicated in an ultrasonic bath for 20 s. […] Viewlux™ from Perkin-Elmer). The amount of emitted light was taken as a measure for the amount of ADP generated and thereby for the activity of the DGKζ.

Chain of human DGKζ (Q13574 other isoform, or with tags, fused parts or gaps): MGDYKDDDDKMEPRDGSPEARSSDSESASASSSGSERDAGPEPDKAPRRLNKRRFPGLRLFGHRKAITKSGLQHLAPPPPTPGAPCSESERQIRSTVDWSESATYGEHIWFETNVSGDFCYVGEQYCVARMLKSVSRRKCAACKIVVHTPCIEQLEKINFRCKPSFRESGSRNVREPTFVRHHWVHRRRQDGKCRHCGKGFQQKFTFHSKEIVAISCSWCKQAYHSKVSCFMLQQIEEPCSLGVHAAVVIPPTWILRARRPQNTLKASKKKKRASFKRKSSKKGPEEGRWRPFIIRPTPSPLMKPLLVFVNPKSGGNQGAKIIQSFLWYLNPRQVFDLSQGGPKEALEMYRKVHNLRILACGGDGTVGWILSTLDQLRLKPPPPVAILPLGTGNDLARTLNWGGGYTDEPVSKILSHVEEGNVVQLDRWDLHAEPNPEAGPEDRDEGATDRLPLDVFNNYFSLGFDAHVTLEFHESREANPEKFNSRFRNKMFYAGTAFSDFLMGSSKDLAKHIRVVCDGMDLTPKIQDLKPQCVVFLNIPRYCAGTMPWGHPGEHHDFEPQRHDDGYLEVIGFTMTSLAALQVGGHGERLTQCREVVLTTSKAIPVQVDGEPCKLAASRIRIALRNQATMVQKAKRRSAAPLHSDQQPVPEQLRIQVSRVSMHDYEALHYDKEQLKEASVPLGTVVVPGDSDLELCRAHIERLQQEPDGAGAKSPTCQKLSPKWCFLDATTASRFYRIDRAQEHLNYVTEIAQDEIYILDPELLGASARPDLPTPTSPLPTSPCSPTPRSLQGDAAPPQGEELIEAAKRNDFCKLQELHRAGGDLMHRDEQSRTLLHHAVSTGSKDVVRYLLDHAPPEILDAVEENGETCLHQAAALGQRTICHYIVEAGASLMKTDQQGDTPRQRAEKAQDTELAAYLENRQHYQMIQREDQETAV

| IC50 [nM] | SMILES |
| --- | --- |
| 25.3 | CC(C(N)=O)N(c1ccc(Cl)c(Cl)c1)c1nc(N)c(C(=O)c2ccccc2)s1 (racemic) [Example 35, rac-2-(N-(4-amino-5-benzoyl-thiazol-2-yl)-3,4-dichloro-anilino)propanamide] |
| 3 | CC(C(N)=O)N(c1ccc(Cl)c(F)c1)c1nc(N)c(C(=O)c2ccc(C(=O)NCCOc3ccccc3)cc2)s1 (racemic) [Example 268, rac-4-[4-amino-2-(N-(2-amino-1-methyl-2-oxo-ethyl)-4-chloro-3-fluoro-anilino)thiazole-5-carbonyl]-N-(2-phenoxyethyl)benzamide] |
| 927 | CC(C)Oc1ccc(N(c2nc(N)c(C(=O)c3ccccc3)s2)C(C)C(N)=O)cc1 (racemic) [Example 3, rac-2-(N-(4-amino-5-benzoyl-thiazol-2-yl)-4-isopropoxy-anilino)propanamide] |
| 69 | CC(C(N)=O)N(c1ccc(OC(F)F)c(Cl)c1)c1nc(N)c(C(=O)c2ccc(Cl)cc2)s1 (racemic) [Example 202, rac-2-[N-[4-amino-5-(4-chlorobenzoyl)thiazol-2-yl]-3-chloro-4-(difluoromethoxy)anilino]propanamide] |
| 757 | CC(C(N)=O)N(c1nc(N)c(C(=O)c2ccccc2)s1)c1ccc(F)cc1Br (racemic) [Example 5, rac-2-(N-(4-amino-5-benzoyl-thiazol-2-yl)-2-bromo-4-fluoro-anilino)propanamide] |
| 73.5 | CC(C(N)=O)N(c1ccc(F)cc1)c1nc(N)c(C(=O)c2ccc(OCC(=O)NCc3nc4ccccc4[nH]3)cc2)s1 (racemic) [Example 98, rac-2-(N-[4-amino-5-[4-[2-(1H-benzimidazol-2-ylmethylamino)-2-oxo-ethoxy]benzoyl]thiazol-2-yl]-4-fluoro-anilino)propanamide] |
| 8 | COc1ccc(C(=O)c2sc(N(c3ccc(Cl)cc3)C(C)C(N)=O)nc2N)cc1 (single isomer, unassigned) [Example 58.1, 2-(N-[4-amino-5-(4-methoxybenzoyl)thiazol-2-yl]-4-chloro-anilino)propanamide] |
| 44 | CC(NC(=O)COc1ccc(C(=O)c2sc(N(c3ccc(F)cc3)C(C)C(N)=O)nc2N)cc1)c1ccccc1 (racemic) [Example 125, 2-(N-[4-amino-5-[4-[2-oxo-2-(1-phenylethylamino)ethoxy]benzoyl]thiazol-2-yl]-4-fluoro-anilino)propanamide] |
| 41 | COc1ccc(C(=O)c2sc(N(c3ccc(OC(F)(F)F)c(F)c3)C(C)C(N)=O)nc2N)cc1 (racemic) [Example 217, rac-2-[N-[4-amino-5-(4-methoxybenzoyl)thiazol-2-yl]-3-fluoro-4-(trifluoromethoxy)anilino]propanamide] |
| 266 | CNC(=O)c1ccc(C(=O)c2sc(N(c3ccc(F)cc3)C(C)C(N)=O)nc2N)cc1 (racemic) [Example 15, rac-4-[4-amino-2-(N-[2-amino-1-methyl-2-oxo-ethyl]-4-fluoro-anilino)thiazole-5-carbonyl]-N-methyl-benzamide] |
| 48 | CC(C(N)=O)N(c1ccc(OC(F)F)c(F)c1)c1nc(N)c(C(=O)c2ccc(Cl)cc2)s1 (racemic) [Example 206, rac-2-[N-[4-amino-5-(4-chlorobenzoyl)thiazol-2-yl]-4-(difluoromethoxy)-3-fluoro-anilino]propanamide] |
| 2000 | CC(C(N)=O)N(c1ccc(F)cc1)c1nc(N)c(C(=O)c2ccc(Cl)cc2)s1 (single isomer, unassigned) [Example 38.1, 2-(N-[4-amino-5-(4-chlorobenzoyl)thiazol-2-yl]-4-fluoro-anilino)propanamide] |
| 178 | CC(C(N)=O)N(c1ccc(O)cc1)c1nc(N)c(C(=O)c2ccc(OC(F)F)cc2)s1 (single isomer, unassigned) [Example 291, 2-(N-[4-amino-5-[4-(difluoromethoxy)benzoyl]thiazol-2-yl]-4-hydroxy-anilino)propanamide (single enantiomer)] |
| 41.9 | Cc1cc(NC(=O)COc2ccc(C(=O)c3sc(N(c4ccc(F)cc4)C(C)C(N)=O)nc3N)cc2)no1 (racemic) [Example 103, rac-2-(N-[4-amino-5-[4-[2-[(5-methylisoxazol-3-yl)amino]-2-oxo-ethoxy]benzoyl]thiazol-2-yl]-4-fluoro-anilino)propanamide] |
| 7550 | CC(C(N)=O)N(c1cnn(C)c1)c1nc(N)c(C(=O)c2ccccc2)s1 (single isomer, unassigned) [Example 78.2, 2-[(4-amino-5-benzoyl-thiazol-2-yl)-(1-methylpyrazol-4-yl)amino]propanamide] |
| 74.8 | CC(C(N)=O)N(c1ccc(F)cc1)c1nc(N)c(C(=O)c2ccc(Cl)c(Cl)c2)s1 (racemic) [Example 26, rac-2-(N-[4-amino-5-(3,4-dichlorobenzoyl)thiazol-2-yl]-4-fluoro-anilino)propanamide] |
| 392 | CC(C(N)=O)N(c1ccc(F)cc1)c1nc(N)c(C(=O)c2ccnc(Cl)c2)s1 (racemic) [Example 186, rac-2-(N-[4-amino-5-(2-chloropyridine-4-carbonyl)thiazol-2-yl]-4-fluoro-anilino)propanamide] |
| 26 | COc1ccc(N(c2nc(N)c(C(=O)c3ccc(OC(F)F)cc3)s2)C(C)C(N)=O)cc1 (single isomer, unassigned) [Example 174.1, 2-(N-[4-amino-5-[4-(difluoromethoxy)benzoyl]thiazol-2-yl]-4-methoxy-anilino)propanamide] |
| 10200 | Cc1ccccc1N(c1nc(N)c(C(=O)c2ccccc2)s1)C(C)C(N)=O (single isomer, unassigned) [Example 77.2, 2-(N-(4-amino-5-benzoyl-thiazol-2-yl)-2-methyl-anilino)propanamide] |
| 72.7 | COc1ccc(C(=O)c2sc(N(c3ccc(F)c(F)c3)C(C)C(N)=O)nc2N)cn1 (single isomer, unassigned) [Example 52.1, 2-(N-[4-amino-5-(6-methoxypyridine-3-carbonyl)thiazol-2-yl]-3,4-difluoro-anilino)propanamide] |
| 300 | Cc1cc(NC(=O)COc2ccc(C(=O)c3sc(N(c4ccc(F)cc4)C(C)C(N)=O)nc3N)cc2)on1 (racemic) [Example 112, rac-2-(N-(4-amino-5-[4-[2-[(3-methylisoxazol-5-yl)amino]-2-oxo-ethoxy]benzoyl]thiazol-2-yl]-4-fluoro-anilino)propanamide] |
| 73.1 | CC(C(N)=O)N(c1ccc(F)cc1)c1nc(N)c(C(=O)c2ccc(OCC(=O)N(C)CCc3ccccc3)cc2)s1 (racemic) [Example 127, rac-2-(N-[4-amino-5-[4-[2-[methyl(2-phenylethyl)amino]-2-oxo-ethoxy]benzoyl]thiazol-2-yl]-4-fluoro-anilino)propanamide] |
| 2 | CC(C(N)=O)N(c1ccc(F)c(F)c1)c1nc(N)c(C(=O)c2ccc(NC(=O)OCc3ccccc3)cc2)s1 (racemic) [Example 167, rac-benzyl N-[4-[4-amino-2-(N-(2-amino-1-methyl-2-oxo-ethyl)-3,4-difluoro-anilino)thiazole-5-carbonyl]phenyl]carbamate] |
| 53 | CC(C(N)=O)N(c1ccc(F)cc1)c1nc(N)c(C(=O)c2ccc(N3CC4CC4C3)nc2)s1 (racemic) [Example 282, rac-2-(N-[4-amino-5-[6-(3-azabicyclo[3.1.0]hexan-3-yl)pyridine-3-carbonyl]thiazol-2-yl]-4-fluoro-anilino)propanamide] |
| 218 | CC(C(N)=O)N(c1ccc(OC(F)(F)F)nc1)c1nc(N)c(C(=O)c2ccccc2)s1 (racemic) [Example 228, rac-2-[(4-amino-5-benzoyl-thiazol-2-yl)-[6-(trifluoromethoxy)-3-pyridyl]amino]propanamide] |
| 6350 | CC(C(N)=O)N(c1ccncc1)c1nc(N)c(C(=O)c2ccccc2)s1 (racemic) [Example 189, rac-2-[(4-amino-5-benzoyl-thiazol-2-yl)-(4-pyridyl)amino]propanamide] |
| 4890 | COc1ccc(C(=O)c2sc(N(c3ccc(Cl)c(F)c3)C(C)C(N)=O)nc2N)cn1 (single isomer, unassigned) [Example 172.2, 2-(N-[4-amino-5-(6-methoxypyridine-3-carbonyl)thiazol-2-yl]-4-chloro-3-fluoro-anilino)propanamide] |

| SMILES | IC50 [nM] |
| --- | --- |
| CC(C(N)=O)N(c1ccc(F)cc1)c1nc(N)c(C(=O)c2ccc(N3CCC(C)(C#N)CC3)nc2)s1 (racemic) [Example 285, rac-2-(N-[4-amino-5-[6-(4-cyano-4-methyl-1-piperidy!)pyridine-3-carbonyl]thiazol-2-yl]-4-fluoro-anilino)propanamide] | 68 |
| COc1cccc(CNC(=O)COc2ccc(C(=O)c3sc(N(c4ccc(F)cc4)C(C)C(N)=O)nc3N)cc2)c1 (racemic) [Example 95, rac-2-(N-(4-amino-5-[4-[2-[(3-methoxyphenyl)methylamino]-2-oxo-ethoxy]benzoyl]thiazol-2-yl]-4-fluoro-anilino)propanamide] | 39 |
| Cc1ccccc1N(C)C(=O)COc1ccc(C(=O)c2sc(N(c3ccc(F)cc3)C(C)C(N)=O)nc2N)cc1 (racemic) [Example 138, rac-2-(N-[4-amino-5-[4-[2-(N,2-dimethylanilino)-2-oxo-ethoxy]benzoyl]thiazol-2-yl]-4-fluoro-anilino)propanamide] | 61.6 |
